Assay results taken from paper PMC6030563, “Type 2 NADH Dehydrogenase Is the Only Point of Entry for Electrons into the Streptococcus agalactiae Respiratory Chain and Is a Potential Drug Target” (mBio, 2018).

Key:
S. agalactiae cells = assay: Inhibition of cell growth overnight under respiration permissive conditions (GI50); type: cell-based, Streptococcus agalactiae; settings: for GI50: Streptococcus agalactiae, overnight growth, respiration permissive conditions, read-out: GI50 (concentration that causes 50% inhibition of cell growth); for effect on cell growth: whole cells growing under respiration permissive conditions
S. agalactiae NDH-2 [1] = molecular target: T1, S. agalactiae NDH-2 (Streptococcus agalactiae, UniProt Q8E3H1); assay: Inhibition of isolated NDH-2 NADH:quinone oxidoreductase activity (FDA-approved drug library screen and IC50); settings: for inhibition at 25 µM: read-out: inhibition of enzymatic activity
T1 sequence (Q8E3H1 2-402 limits assumed): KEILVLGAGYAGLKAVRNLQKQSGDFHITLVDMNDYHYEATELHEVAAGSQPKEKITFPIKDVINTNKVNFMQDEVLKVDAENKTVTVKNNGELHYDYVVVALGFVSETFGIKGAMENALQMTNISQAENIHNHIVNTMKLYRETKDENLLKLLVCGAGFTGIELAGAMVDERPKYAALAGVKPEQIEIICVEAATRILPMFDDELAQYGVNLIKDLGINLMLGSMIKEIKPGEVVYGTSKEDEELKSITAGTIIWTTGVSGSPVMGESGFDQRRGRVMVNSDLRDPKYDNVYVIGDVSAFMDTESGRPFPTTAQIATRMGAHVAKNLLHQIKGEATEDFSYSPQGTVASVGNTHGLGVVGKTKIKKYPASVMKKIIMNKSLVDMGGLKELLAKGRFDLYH

S. agalactiae NDH-2 [2] = molecular target: T1, S. agalactiae NDH-2; assay: NDH-2 enzyme activity and kinetic parameters with NADH and soluble quinone analogues; type: biochemical
Experimental: The rate of NADH oxidation was determined using a UV-Vis spectrophotometer (Agilent Technologies model 8453) by monitoring absorbance at 340 nm (NADH oxidation) upon addition of 100 µM NADH in the presence of 2 nM enzyme and a 100 µM concentration of a quinone soluble analogue. Assays were performed at 37°C in buffer B (50 mM sodium phosphate buffer [pH 7], 150 mM NaCl) plus 125 µg ml^−1 of soy asolectin (Sigma) and 20 µM FAD. For determination of kinetic constants, 2 to 200 µM NADH and 2 to 200 µM of DMN were added to the reaction mixture containing 2 nM enzyme. Enzyme rates are expressed as a turnover number (kcat) based on moles of NADH oxidized per second per mole of enzyme.

S. agalactiae WT cells = settings: Streptococcus agalactiae, read-out: inhibition of respiration (oxygen consumption)
Porphyromonas gingivalis = tested on: Porphyromonas gingivalis; design: method as in PMID 28087617; settings: cited from earlier work
M. tuberculosis = tested on: M. tuberculosis; design: method as in PMID 23439641; settings: cited from earlier work
[3] = tested on: S. agalactiae Δnox2 strain; assay: Overnight growth and oxygen consumption of the Δnox2 strain with zafirlukast
Streptococcus mutans = tested on: Streptococcus mutans; design: method as in PMID 28087617; settings: cited from earlier work
S. aureus NdhC = tested on: S. aureus NdhC; design: method as in PMID 24709059; settings: cited from earlier work

Work on `CCCCC(CC)CNC(=N)NC(=N)NCCCCCCNC(=N)NC(=N)NCC(CC)CCCC` (stereo not shown) [Alexidine] yielded a GI50 (S. agalactiae cells) of 2.7 ± 0.51 µM, an IC50 (S. agalactiae NDH-2 [1]) of 16.8 ± 1.26 µM and an inhibition at 25 µM (S. agalactiae NDH-2 [1]) of no less than 80%.

With `CC[C@H](C)C[C@H](C)CCCCCCCCC(=O)N[C@H]1C[C@@H](O)[C@@H](NCCN)NC(=O)[C@@H]2[C@@H](O)CCN2C(=O)[C@H]([C@H](O)CCN)NC(=O)[C@H]([C@H](O)[C@@H](O)c2ccc(O)cc2)NC(=O)[C@@H]2C[C@@H](O)CN2C(=O)[C@H]([C@@H](C)O)NC1=O` [Caspofungin] the GI50 (S. agalactiae cells) was 41 ± 2.62 µM, the IC50 (S. agalactiae NDH-2 [1]) was 15.2 ± 2.33 µM and the inhibition at 25 µM (S. agalactiae NDH-2 [1]) was no less than 80%.

`Cc1cc(C(C#N)c2ccc(Cl)cc2)c(Cl)cc1NC(=O)c1cc(I)cc(I)c1O` (stereo not shown) [Closantel] gave a GI50 (S. agalactiae cells) of 0.25 ± 0.04 µM, an IC50 (S. agalactiae NDH-2 [1]) of 5.34 ± 0.65 µM and an inhibition at 25 µM (S. agalactiae NDH-2 [1]) of no less than 80%.

For `CC1=C(C)C(=O)c2ccccc2C1=O` [DMN, 2,3-dimethyl-1,4-naphthoquinone], the turnover number (S. agalactiae NDH-2 [2]; with DMN as electron acceptor) was “about 800 NADH/s^−1”.

Molecule `NC(=O)C1=CN([C@@H]2O[C@H](COP(=O)(O)OP(=O)(O)OC[C@H]3O[C@@H](n4cnc5c(N)ncnc54)[C@H](O)[C@@H]3O)[C@@H](O)[C@H]2O)C=CC1` [NADH] has a Km (S. agalactiae NDH-2 [2]; 2 nM enzyme, 2 to 200 µM NADH and DMN, 37°C, pH 7, read-out: Km for the enzyme's substrates) of 11 µM.

For `COC1=C(OC)C(=O)C(CC=C(C)C)=C(C)C1=O` [Q1, ubiquinone-1], the “enzyme activity corresponding to 100% (NADH oxidation)” value (S. agalactiae NDH-2 [2]; 100 µM quinone analogue, 100 µM NADH, Fig. 2C) was 4,190 NADH s^−1.

Work on `CSc1nc2cc(Cl)c(Oc3cccc(Cl)c3Cl)cc2[nH]1` [Triclabendazole] yielded a GI50 (S. agalactiae cells) of 15.3 ± 1.92 µM, an IC50 (S. agalactiae NDH-2 [1]) of 0.14 ± 0.02 µM and an inhibition at 25 µM (S. agalactiae NDH-2 [1]) of no less than 80%.

In the case of `COc1cc(C(=O)NS(=O)(=O)c2ccccc2C)ccc1Cc1cn(C)c2ccc(NC(=O)OC3CCCC3)cc12` [Zafirlukast], the inhibition at 7.5 µM (S. agalactiae WT cells) is given as 90%, the GI50 (S. agalactiae cells) is given as 6.07 ± 0.1 µM and the “activity against Porphyromonas gingivalis” value (Porphyromonas gingivalis) is given as “antibacterial and antibiofilm activity”. For the same molecule, the “activity against M. tuberculosis” value (M. tuberculosis) was “bactericidal activity”, the “growth under respiration permissive compared to nonpermissive conditions” value ([3]; Δnox2 strain grown overnight with 7.5 µM zafirlukast (~GI50)) was “does not exhibit enhanced growth” and the “oxygen utilization compared to cells grown in the absence of zafirlukast” value ([3]; Δnox2 strain grown overnight with 7.5 µM zafirlukast, respiration permissive) was “substantially lower”. For the same molecule, the “activity against Streptococcus mutans” value (Streptococcus mutans) was “antibacterial and antibiofilm activity”, the IC50 (S. agalactiae NDH-2 [1]) was 0.83 ± 0.07 µM and the inhibition at 25 µM (S. agalactiae NDH-2 [1]) was no less than 80%.

In the case of `CCOc1nc2cccc(C(=O)O)c2n1Cc1ccc(-c2ccccc2-c2nnn[nH]2)cc1` [candesartan], the “effect on cell growth” value (S. agalactiae cells) is reported as “no effect on cell growth” and the inhibition at 25 µM (S. agalactiae NDH-2 [1]) is reported as no less than 80%.

With `Oc1c(Cl)cc(Cl)c(Cl)c1Cc1c(O)c(Cl)cc(Cl)c1Cl` [hexachlorophene] the “inhibition of enzymatic activity” value (S. agalactiae NDH-2 [1]; 25 µM each compound, pure enzyme, NADH and menadione) was “at least 80%”.

With `O=c1c(O[C@@H]2O[C@H](CO)[C@@H](O)[C@H](O)[C@H]2O)c(-c2ccc(O)c(O)c2)oc2cc(O)cc(O)c12` [isoquercetin] the “effect on cell growth” value (S. agalactiae cells) was “no effect on cell growth” and the inhibition at 25 µM (S. agalactiae NDH-2 [1]) was no less than 80%.

For `CCCCOc1ccc(OCCCN2CCOCC2)cc1` [pramoxine], the “effect on cell growth” value (S. agalactiae cells) was “no effect on cell growth” and the inhibition at 25 µM (S. agalactiae NDH-2 [1]) was no less than 80%.

In the case of `CSc1ccc2c(c1)N(CCC1CCCCN1C)c1ccccc1S2` (stereo not shown) [thioridazine], the “inhibitory effect on S. aureus NdhC” value (S. aureus NdhC) is given as “strong inhibitory effect”.

For `CN1CCN(CCCN2c3ccccc3Sc3ccc(C(F)(F)F)cc32)CC1` [trifluoperazine], the “inhibitory effect on S. aureus NdhC” value (S. aureus NdhC) is given as “strong inhibitory effect” and the “inhibition of S. agalactiae NDH-2” value (S. agalactiae NDH-2 [1]) is given as “not inhibited”.
